Assay [1] deals with hemolysin alpha from Staphylococcus aureus (Staphylococcus aureus, UniProt P09616). Description: cell-based.
Assay [2] deals with S. aureus Alpha hemolysin (Staphylococcus aureus, UniProt P09616). In words: cell-based. As to conditions: A549-LDH Assay activity.

As a reminder, the IC50 is the concentration that gives 50% inhibition. Low values mean greater potency in that assay, high ones weaker potency in that assay. Broadly, the EC50 is the concentration that produces a half-maximal response. A lower EC50 goes with higher potency in that assay.

S. aureus Alpha hemolysin, sequence (P09616 27-319 limits assumed): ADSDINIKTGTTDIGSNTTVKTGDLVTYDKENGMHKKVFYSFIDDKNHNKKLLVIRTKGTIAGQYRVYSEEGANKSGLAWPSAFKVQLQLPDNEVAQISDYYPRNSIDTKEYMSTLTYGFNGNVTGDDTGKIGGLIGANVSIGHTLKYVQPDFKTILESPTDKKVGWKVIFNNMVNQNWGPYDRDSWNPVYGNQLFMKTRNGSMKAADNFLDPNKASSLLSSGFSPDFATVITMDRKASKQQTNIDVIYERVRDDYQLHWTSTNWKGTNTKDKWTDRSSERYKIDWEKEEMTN
hemolysin alpha from Staphylococcus aureus, sequence (P09616 27-319 limits assumed): as above

In assay [1], `Cc1cccc(-c2c(C)cc(NS(=O)(=O)c3cc4[nH]c(=O)c(=O)[nH]c4cc3C)cc2C)c1` [Compound 175, 7-methyl-2,3-dioxo-N-(2,3′,6-trimethyl-[1,1′-biphenyl]-4-yl)-1,2,3,4-tetrahydroquinoxaline-6-sulfonamide] had an IC50 of 100 to 1000 nM. This compound also registered an EC50 in assay [2] of 100 to 1000 nM.
Regarding `Cc1cc2[nH]c(=O)c(=O)[nH]c2cc1S(=O)(=O)Nc1ccc(Cl)cc1` [Compound 177, N-(4-chlorophenyl)-7-methyl-2,3-dioxo-1,2,3,4-tetrahydroquinoxaline-6-sulfonamide], the IC50 in assay [1] was 100 to 1000 nM. The EC50 in assay [2] fell in the range of 100 to 1000 nM.
`Cc1cc2[nH]c(=O)c(=O)[nH]c2cc1S(=O)(=O)Nc1ccc(-c2ccccc2C(=O)O)cc1` [Compound 182, 4′-((7-methyl-2,3-dioxo-1,2,3,4-tetrahydroquinoxaline)-6-sulfonamido)-[1,1′-biphenyl]-2-carboxylic acid] came in with an IC50 in assay [1] of 1000 to 3500 nM. The EC50 in assay [2] lay within 1000 to 6000 nM.
As for `O=c1[nH]c2cc(OC(F)(F)F)c(S(=O)(=O)Nc3ccc(-c4ccc(F)cc4)c(Cl)c3)cc2[nH]c1=O` [Compound 197, N-(2-chloro-4′-fluoro-[1,1′-biphenyl]-4-yl)-2,3-dioxo-7-(trifluoromethoxy)-1,2,3,4-tetrahydroquinoxaline-6-sulfonamide], the EC50 in assay [1] was 1000 to 3500 nM; in assay [2], 1000 to 6000 nM.
As for `Cc1cc2[nH]c(=O)c(=O)[nH]c2cc1S(=O)(=O)Nc1ccc(N2CCOCC2(C)C)c(Cl)c1` [Compound 202, N-(3-chloro-4-(3,3-dimethylmorpholino)phenyl)-7-methyl-2,3-dioxo-1,2,3,4-tetrahydroquinoxaline-6-sulfonamide], the EC50 in assay [1] and in assay [2] was 100 to 1000 nM throughout.
In the case of `Cc1cc2[nH]c(=O)c(=O)[nH]c2cc1S(=O)(=O)Nc1ccc(-c2cccc(N3CCC3)c2)c(Cl)c1` [Compound 206, N-(3′-(azetidin-1-yl)-2-chloro-[1,1′-biphenyl]-4-yl)-7-methyl-2,3-dioxo-1,2,3,4-tetrahydroquinoxaline-6-sulfonamide], the EC50 is below 30 nM in assay [1] and 30 to 100 nM in assay [2].
For the compound `Cc1cc2[nH]c(=O)c(=O)[nH]c2cc1S(=O)(=O)Nc1cc(Cl)c(-c2cccc(Cl)c2)cn1` [Compound 210, N-(4-chloro-5-(3-chlorophenyl)pyridin-2-yl)-7-methyl-2,3-dioxo-1,2,3,4-tetrahydroquinoxaline-6-sulfonamide], the figures for the EC50 in assay [1] and in assay [2] were 30 to 100 nM and 100 to 1000 nM, respectively.
On to `Cc1cc2[nH]c(=O)c(=O)[nH]c2cc1S(=O)(=O)Nc1cc(Cl)c(-c2ccc(F)c(Cl)c2)cn1` [Compound 211, N-(4-chloro-5-(3-chloro-4-fluorophenyl)pyridin-2-yl)-7-methyl-2,3-dioxo-1,2,3,4-tetrahydroquinoxaline-6-sulfonamide], for which the EC50 in assay [1] and in assay [2] was 100 to 1000 nM each time.
Consider `N#Cc1cc2[nH]c(=O)c(=O)[nH]c2cc1S(=O)(=O)Nc1ccc(OC(F)(F)F)cc1` [Compound 216, 7-cyano-2,3-dioxo-N-(4-(trifluoromethoxy)phenyl)-1,2,3,4-tetrahydroquinoxaline-6-sulfonamide], for which the half-maximal effective concentration (EC50) in assay [1] and in assay [2] was 100 to 1000 nM in each case.
With `[2H]C([2H])([2H])c1cc2[nH]c(=O)c(=O)[nH]c2cc1S(=O)(=O)Nc1ccc(OC(F)(F)F)cc1` [Compound 217, 7-(methyl-d3)-2,3-dioxo-N-(4-(trifluoromethoxy)phenyl)-1,2,3,4-tetrahydroquinoxaline-6-sulfonamide], the EC50 in assay [1] and in assay [2] was below 30 nM in each case.
In the case of `O=c1[nH]c2cc(C(F)F)c(S(=O)(=O)Nc3ccc(OC(F)(F)F)cc3)cc2[nH]c1=O` [Compound 218, 7-(difluoromethyl)-2,3-dioxo-N-(4-(trifluoromethoxy)phenyl)-1,2,3,4-tetrahydroquinoxaline-6-sulfonamide], the EC50 in assay [1] and in assay [2] was 100 to 1000 nM in each case.
As for `Cc1cc2[nH]c(=O)c(=O)[nH]c2cc1S(=O)(=O)NC12CC(c3ccccc3)(C1)C2` [Compound 230, 7-methyl-2,3-dioxo-N-(3-phenylbicyclo[1.1.1]pentan-1-yl)-1,2,3,4-tetrahydroquinoxaline-6-sulfonamide], the concentration for a half-maximal effect (EC50) in assay [1] and in assay [2] was 100 to 1000 nM each time.
`Cc1cc2[nH]c(=O)c(=O)[nH]c2cc1S(=O)(=O)Nc1ccc(N2CCOC[C@H]2C)c(Cl)c1` [Compound 243, (R)-N-(3-chloro-4-(3-methylmorpholino)phenyl)-7-methyl-2,3-dioxo-1,2,3,4-tetrahydroquinoxaline-6-sulfonamide]: the EC50 fell in the range of 1000 to 3500 nM in assay [1] and 100 to 1000 nM in assay [2].
As for `Cc1cc2[nH]c(=O)c(=O)[nH]c2cc1S(=O)(=O)Nc1ccc(-c2ccc(F)cc2)c(Br)c1` [Compound 244, N-[3-bromo-4-(4-fluorophenyl)phenyl]-7-methyl-2,3-dioxo-1,4-dihydroquinoxaline-6-sulfonamide], the figures for the EC50 in assay [1] and in assay [2] were below 30 nM and 30 to 100 nM, respectively.
On to `Cc1cc2[nH]c(=O)c(=O)[nH]c2cc1S(=O)(=O)Nc1ccc(-c2cccc(C(N)=O)c2)c(Cl)c1` [Compound 245, 3-[2-chloro-4-[(7-methyl-2,3-dioxo-1,4-dihydroquinoxalin-6-yl)sulfonylamino]phenyl] benzamide], for which the EC50 in assay [1] is below 30 nM; in assay [2] it was 30 to 100 nM.
For `COc1ccc(-c2ccc(NS(=O)(=O)c3cc4[nH]c(=O)c(=O)[nH]c4cc3C)cc2Cl)cc1` [Compound 246, N-[3-chloro-4-(4-methoxyphenyl)phenyl]-7-methyl-2,3-dioxo-1,4-dihydroquinoxaline-6-sulfonamide], the results for the EC50 in assay [1] and in assay [2] were below 30 nM and 30 to 100 nM, respectively.
Regarding `Cc1cc2[nH]c(=O)c(=O)[nH]c2cc1S(=O)(=O)Nc1ccc(-c2ccc3c(c2)OCO3)c(Cl)c1` [Compound 247, N-[4-(1,3-benzodioxol-5-yl)-3-chloro-phenyl]-7-methyl-2,3-dioxo-1,4-dihydroquinoxaline-6-sulfonamide], the EC50 in assay [1] was below 30 nM; in assay [2], 30 to 100 nM.
The corresponding values for `Cc1cc(C)cc(-c2ccc(NS(=O)(=O)c3cc4[nH]c(=O)c(=O)[nH]c4cc3C)cc2Cl)c1` [Compound 248, N-[3-chloro-4-(3,5-dimethylphenyl)phenyl]-7-methyl-2,3-dioxo-1,4-dihydroquinoxaline-6-sulfonamide] are 100 to 1000 nM and 100 to 1000 nM.
For `CC(=O)c1cccc(-c2ccc(NS(=O)(=O)c3cc4[nH]c(=O)c(=O)[nH]c4cc3C)cc2Cl)c1` [Compound 249, N-[4-(3-acetylphenyl)-3-chloro-phenyl]-7-methyl-2,3-dioxo-1,4-dihydroquinoxaline-6-sulfonamide], the figures for the EC50 in assay [1] and in assay [2] were below 30 nM and 100 to 1000 nM, respectively.
With `Cc1cc2[nH]c(=O)c(=O)[nH]c2cc1S(=O)(=O)Nc1ccc(-c2ccc(F)cc2)c(N2CCOCC2)c1` [Compound 250, N-[4-(4-fluorophenyl)-3-morpholino-phenyl]-7-methyl-2,3-dioxo-1,4-dihydroquinoxaline-6-sulfonamide], the values for the EC50 in assay [1] and in assay [2] were 100 to 1000 nM and 1000 to 6000 nM, respectively.
The corresponding values for `C#Cc1ccc(-c2ccc(NS(=O)(=O)c3cc4[nH]c(=O)c(=O)[nH]c4cc3C)cc2C#C)cc1` [Compound 251, N-(2,4′-diethynyl-[1,1′-biphenyl]-4-yl)-7-methyl-2,3-dioxo-1,2,3,4-tetrahydroquinoxaline-6-sulfonamide] are below 30 nM and below 30 nM.
Consider `C#Cc1cc(NS(=O)(=O)c2cc3[nH]c(=O)c(=O)[nH]c3cc2C)ccc1-c1ccccc1` [Compound 252, N-(3-ethynyl-4-phenyl-phenyl)-7-methyl-2,3-dioxo-1,4-dihydroquinoxaline-6-sulfonamide], for which the EC50 is below 30 nM in assay [1] and 30 to 100 nM in assay [2].
Regarding `C#Cc1cc(NS(=O)(=O)c2cc3[nH]c(=O)c(=O)[nH]c3cc2C)ccc1-c1ccc(C#N)cc1` [Compound 253, N-[4-(4-cyanophenyl)-3-ethynyl-phenyl]-7-methyl-2,3-dioxo-1,4-dihydroquinoxaline-6-sulfonamide], the EC50 in assay [1] is below 30 nM; in assay [2], 30 to 100 nM.
Consider `Cc1cc2[nH]c(=O)c(=O)[nH]c2cc1S(=O)(=O)Nc1ccc(-c2ccc(C#N)nc2)c(Cl)c1` [Compound 254, N-[3-chloro-4-(6-cyano-3-pyridyl)phenyl]-7-methyl-2,3-dioxo-1,4-dihydroquinoxaline-6-sulfonamide], for which the EC50 in assay [1] and in assay [2] was 100 to 1000 nM each time.
As to `Cc1cc2[nH]c(=O)c(=O)[nH]c2cc1S(=O)(=O)Nc1ccc(-c2ccc(F)cc2)c(N(C)C)c1` [Compound 255, N-[3-(dimethylamino)-4-(4-fluorophenyl)phenyl]-7-methyl-2,3-dioxo-1,4-dihydroquinoxaline-6-sulfonamide], the EC50 in assay [1] and in assay [2] was 100 to 1000 nM throughout.
Turning to `Cc1cc2[nH]c(=O)c(=O)[nH]c2cc1S(=O)(=O)Nc1ccc(-c2ccc3nn[nH]c3c2)c(Cl)c1` [Compound 256, N-[4-(1H-benzotriazol-5-yl)-3-chloro-phenyl]-7-methyl-2,3-dioxo-1,4-dihydroquinoxaline-6-sulfonamide], the EC50 in assay [1] was below 30 nM; in assay [2] it was 30 to 100 nM.
The corresponding values for `Cc1cc2[nH]c(=O)c(=O)[nH]c2cc1S(=O)(=O)Nc1ccc(-c2ccc(Cl)c(Cl)c2)c(Cl)c1` [Compound 257, N-[3-chloro-4-(3,4-dichlorophenyl)phenyl]-7-methyl-2,3-dioxo-1,4-dihydroquinoxaline-6-sulfonamide] are below 30 nM and 30 to 100 nM.
For the compound `COc1cc(OC)cc(-c2ccc(NS(=O)(=O)c3cc4[nH]c(=O)c(=O)[nH]c4cc3C)cc2Cl)c1` [Compound 258, N-[3-chloro-4-(3,5-dimethoxyphenyl)phenyl]-7-methyl-2,3-dioxo-1,4-dihydroquinoxaline-6-sulfonamide], the EC50 in assay [1] and in assay [2] was 100 to 1000 nM throughout.
